Source: US20250084087A1, “BICYCLIC HETEROCYCLES AS MRGPRX2 ANTAGONISTS” (Incyte Corporation, priority 2023, published 2025)

Columns and labels:
Assay type in all cases: cell-based
MRGPRX2 [1] = biological target: T1, MRGPRX2 (Homo sapiens, UniProt Q96LB1); test: MRGPRX2 FLIPR calcium mobilization assay; design: host or cells: CHO-K1; conditions: CHO-K1 cells stably expressing human MRGPRX2; Ca2+ release; agonist Cortistatin-14 at EC80
T1 sequence (Q96LB1 1-330): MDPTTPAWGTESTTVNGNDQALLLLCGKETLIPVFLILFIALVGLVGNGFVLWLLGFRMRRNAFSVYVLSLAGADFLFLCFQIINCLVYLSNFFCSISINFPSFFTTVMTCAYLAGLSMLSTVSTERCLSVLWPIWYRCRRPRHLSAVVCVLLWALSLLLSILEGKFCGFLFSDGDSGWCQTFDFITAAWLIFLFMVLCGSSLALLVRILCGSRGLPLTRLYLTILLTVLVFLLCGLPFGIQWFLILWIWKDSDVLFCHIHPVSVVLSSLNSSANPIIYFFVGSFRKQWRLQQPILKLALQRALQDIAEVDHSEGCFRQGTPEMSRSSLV
Summary of the method: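 CHO-K1 cells stably expressing the receptor, loaded with Calcium 6 dye, then preincubated 30 min at r.t. with compound in HBSS/20 mM HEPES pH 7.4. Cortistatin-14 at EC80 added; baseline-adjusted maximum RFU read over 110 s. IC50 from 3- or 4-parameter Hill fit.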

MRGPRX2 [2] = biological target: T1, MRGPRX2; test: MRGPRX2 IP1 HTRF assay; design: host or cells: CHO-K1; conditions: CHO-K1 cells stably expressing human MRGPRX2; IP1 accumulation; agonist Cortistatin 14 1 μM
Summary of the method: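 CHO-K1 cells stably expressing human MRGPRX2, preincubated with compound 1 h at 37 °C, then stimulated with 1 μM Cortistatin 14 for 1 h. IP1 measured by HTRF against standard curve, normalized to DMSO and reference antagonist controls; IC50 from 3- or 4-parameter Hill fit.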

MRGPRX2 [3] = biological target: T1, MRGPRX2; test: MRGPRX2 β-Arrestin recruitment assay (PathHunter); design: host or cells: CHO-K1 (PathHunter); conditions: PathHunter CHO-K1 MRGPRX2 β-Arrestin cell line; agonist Cortistatin 14 0.25 μM
Summary of the method: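 CHO-K1 PathHunter cells co-expressing ProLink-tagged MRGPRX2 and enzyme-acceptor-tagged β-arrestin were preincubated with compound 1 h at 37° C., then stimulated with cortistatin-14 (0.25 μM final) for 90 min. Enzyme-complementation luminescence read after 1 h detection; data normalized to DMSO and reference antagonist, IC50 from 3- or 4-parameter Hill fit.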

IC50 (MRGPRX2 [1]) [nM] | IC50 (MRGPRX2 [2]) [nM] | IC50 (MRGPRX2 [3]) [nM] | SMILES
0.1 to 100 | 0.1 to 100 | 0.1 to 100 | CN1CCN(C2CC(CNc3cc(C(F)(F)F)nc4cc(Br)nn34)(c3ccccc3)C2)CC1 (stereo not drawn) [Example 43, 2-Bromo-N-((3-(4-methylpiperazin-1-yl)-1-phenylcyclobutyl)methyl)-5-(trifluoromethyl)pyrazolo[1,5-a]pyrimidin-7-amine]
0.1 to 100 | 0.1 to 100 | 0.1 to 100 | OCCNC1CC(CNc2cc(C(F)(F)F)nc3cc(Br)nn23)(c2ccccc2)C1 (stereo not drawn) [Example 44, 2-((3-(((2-Bromo-5-(trifluoromethyl)pyrazolo[1,5-a]pyrimidin-7-yl)amino)methyl)-3-phenylcyclobutyl)amino)ethan-1-ol]
0.1 to 100 | 0.1 to 100 | 0.1 to 100 | N#Cc1cnc(N2CC(CNc3cc(C(F)(F)F)nc4cc(C(F)(F)F)nn34)(c3ccc(F)cc3)C2)cn1 [Example 45, 5-(3-(((2,5-Bis(trifluoromethyl)pyrazolo[1,5-a]pyrimidin-7-yl)amino)methyl)-3-(4-fluorophenyl)azetidin-1-yl)pyrazine-2-carbonitrile]
0.1 to 100 | 0.1 to 100 | 0.1 to 100 | O=C(N[C@H]1CC[C@H](O)CC1)N1CC(CNc2cc(C(F)(F)F)nc3cc(C(F)(F)F)nn23)(c2ccc(F)cc2)C1 [Example 48, 3-(((2,5-Bis(trifluoromethyl)pyrazolo[1,5-a]pyrimidin-7-yl)amino)methyl)-3-(4-fluorophenyl)-N-((1r,4r)-4-hydroxycyclohexyl)azetidine-1-carboxamide]
0.1 to 100 | 0.1 to 100 | 0.1 to 100 | O=C(N[C@H]1C[C@H](O)C1)N1CC(CNc2cc(C(F)(F)F)nc3cc(C(F)(F)F)nn23)(c2ccc(F)cc2)C1 [Example 49, 3-(((2,5-Bis(trifluoromethyl)pyrazolo[1,5-a]pyrimidin-7-yl)amino)methyl)-3-(4-fluorophenyl)-N-((1r,3r)-3-hydroxycyclobutyl)azetidine-1-carboxamide]
0.1 to 100 | 0.1 to 100 | 0.1 to 100 | NC(=O)N1CC(CNc2cc(C(F)(F)F)nc3cc(Br)nn23)(c2ccc(Cl)cc2)C1 [Example 58, 3-(((2-Bromo-5-(trifluoromethyl)pyrazolo[1,5-a]pyrimidin-7-yl)amino)methyl)-3-(4-chlorophenyl)azetidine-1-carboxamide]
0.1 to 100 | 0.1 to 100 | 0.1 to 100 | NS(=O)(=O)N1CC(CNc2cc(C(F)(F)F)nc3cc(C(F)(F)F)nn23)(c2ccc(F)cn2)C1 [Example 59, 3-(((2,5-Bis(trifluoromethyl)pyrazolo[1,5-a]pyrimidin-7-yl)amino)methyl)-3-(5-fluoropyridin-2-yl)azetidine-1-sulfonamide]
0.1 to 100 | 0.1 to 100 | 0.1 to 100 | [2H]C([2H])([2H])NC(=O)N1CC(CNc2cc(C(F)(F)F)nc3cc(C(F)(F)F)nn23)(c2ccc(F)cn2)C1 [Example 61, 3-(((2,5-Bis(trifluoromethyl)pyrazolo[1,5-a]pyrimidin-7-yl)amino)methyl)-3-(5-fluoropyridin-2-yl)-N-(methyl-d3)azetidine-1-carboxamide]
0.1 to 100 | 0.1 to 100 | 0.1 to 100 | CCc1cc(NCC2(c3ccc(F)cc3)CN(C(N)=O)C2)n2nc(C(F)(F)F)cc2n1 [Example 68, 3-(((5-Ethyl-2-(trifluoromethyl)pyrazolo[1,5-a]pyrimidin-7-yl)amino)methyl)-3-(4-fluorophenyl)azetidine-1-carboxamide]
0.1 to 100 | 100 to 1000 | 100 to 1000 | NS(=O)(=O)N1CC(CNc2cc(C(F)(F)F)nc3cc(C4CC4)nn23)(n2cccn2)C1 [Example 94, 3-(((2-Cyclopropyl-5-(trifluoromethyl)pyrazolo[1,5-a]pyrimidin-7-yl)amino)methyl)-3-(1H-pyrazol-1-yl)azetidine-1-sulfonamide]

Second part, the compound before the results:

SMILES | IC50 (MRGPRX2 [1]) [nM] | IC50 (MRGPRX2 [2]) [nM] | IC50 (MRGPRX2 [3]) [nM]
COc1ccc(C2(CNc3cccc4nc(C(F)(F)F)cn34)CCOCC2)cc1 [Example 39, N-((4-(4-Methoxyphenyl)tetrahydro-2H-pyran-4-yl)methyl)-2-(trifluoromethyl)imidazo[1,2-a]pyridin-5-amine] | 0.1 to 100 | 0.1 to 100 | 0.1 to 100
NC(=O)N1CC(CNc2cc(C(F)(F)F)nc3cc(Cl)nn23)(c2ccc(F)cc2)C1 [Example 57, 3-(((2-Chloro-5-(trifluoromethyl)pyrazolo[1,5-a]pyrimidin-7-yl)amino)methyl)-3-(4-fluorophenyl)azetidine-1-carboxamide] | 0.1 to 100 | 0.1 to 100 | 0.1 to 100
[2H]C([2H])([2H])NC(=O)N1CC(CNc2cc(C(F)(F)F)nc3cc(C(F)F)nn23)(c2ccc(F)cc2)C1 [Example 62, 3-(((2-(Difluoromethyl)-5-(trifluoromethyl)pyrazolo[1,5-a]pyrimidin-7-yl)amino)methyl)-3-(4-fluorophenyl)-N-(methyl-d3)azetidine-1-carboxamide] | 0.1 to 100 | 0.1 to 100 | 0.1 to 100
NC(=O)N1CC(CNc2cc(Cl)nc3cc(C(F)(F)F)nn23)(c2ccc(F)cc2)C1 [Example 66, 3-(((5-Chloro-2-(trifluoromethyl)pyrazolo[1,5-a]pyrimidin-7-yl)amino)methyl)-3-(4-fluorophenyl)azetidine-1-carboxamide] | 0.1 to 100 | 0.1 to 100 | 0.1 to 100
Cc1cc(NCC2(c3ccc(F)cc3)CN(C(N)=O)C2)n2nc(C(F)(F)F)cc2n1 [Example 67, 3-(4-Fluorophenyl)-3-(((5-methyl-2-(trifluoromethyl)pyrazolo[1,5-a]pyrimidin-7-yl)amino)methyl)azetidine-1-carboxamide] | 0.1 to 100 | 0.1 to 100 | 0.1 to 100
O=C(N[C@H]1CC[C@H](O)CC1)N1CC(CNc2cc(C(F)(F)F)nc3cc(Br)nn23)(c2ccc(F)cc2)C1 [Example 96, 3-(((2-Bromo-5-(trifluoromethyl)pyrazolo[1,5-a]pyrimidin-7-yl)amino)methyl)-3-(4-fluorophenyl)-N-((1r,4r)-4-hydroxycyclohexyl)azetidine-1-carboxamide] | 0.1 to 100 | 0.1 to 100 | 0.1 to 100
COc1cc(NCC2(c3ccc(F)cc3)CN(S(N)(=O)=O)C2)n2nc(C(F)(F)F)cc2n1 [Example 106, 3-(4-Fluorophenyl)-3-(((5-methoxy-2-(trifluoromethyl)pyrazolo[1,5-a]pyrimidin-7-yl)amino)methyl)azetidine-1-sulfonamide] | 0.1 to 100 | 0.1 to 100 | 0.1 to 100
